SMILES strings stand for the structures. “Also recorded” adds a separate entry of the source.

This note sets out measurements from US20120316137A1, “Methods and Compositions for Treating Cancer” (priority 2009, published 2012).

Assay [1] deals with Phospho-Erk1/2 in MFE-296 cells. Nature of the assay: Western immunoblotting. The following applies: Homo sapiens, MFE-296, read-out: Phospho-Erk1/2 IC50 (nM). For orientation: A western blot detects proteins with antibodies after separation by electrophoresis.
From the text: Cells were lysed in either SDS buffer or Phospho-Safe (Novagen, Gibbstown, N.J.) and protein lysates were immunoprecipitated overnight and/or immunoblotted with the indicated antibodies. Protein expression was quantified using Quantity One software (BioRad, Hercules, Calif.).
In another assay the test system is MV4-11 cells (FLT3-ITD). The assay is described as follows: Cell viability assay (72 h). As to conditions: Homo sapiens, MV4-11, 72 h, read-out: Cell viability IC50 (nM).
The test system of assay [2] is KatoIII gastric cancer cells (FGFR2 Amp/truncate). The assay is described as follows: Cell growth assay (72 h). In kind it is cell-based. The following applies: Homo sapiens, KATO III.
From the text: Data are shown as mean (±SD) from 3 separate experiments tested in triplicate.
For the next assay, the system named is parental Ba/F3 cells. The assay is described as follows: Cellular proliferation assay (MTS, 72 h). The following applies: Mus musculus, BaF3, 72 h.
In assay [3] the test system is Ba/F3 cells expressing BCR-ABL^T315I. Nature of the assay: CrkL phosphorylation immunoblot in Ba/F3 cells. As to conditions: 4 h.
The subject of assay [4] is FGFR2-mutant AN3CA tumor xenograft. The assay is described as follows: AN3CA xenograft, compound 1 and ridaforolimus (Example 9). The format is in vivo, nude mice.
Method: AN3CA cells were implanted into the right flank of nude mice. […] Mean tumor volumes (±SE; tumor volume=L×W^2×0.5) were calculated for each treatment group.
For assay [5], the system named is FGFR2 signaling in AN3CA endometrial cells (N549K). Nature of the assay: Signaling (Western immunoblotting), Table 12. The following applies: Homo sapiens, AN3-CA, read-out: Signaling IC50 (nM).

Method for MV4-11 cells (FLT3-ITD): Exponentially growing cell lines were plated into 96-well plates and incubated overnight at 37° C. […] Fluorescence was measured using a Wallac Victor microplate reader (PerkinElmer, Waltham, Mass.). […] Data are shown as mean (1 SD) from 3 separate experiments, each tested in triplicate.
From the text for parental Ba/F3 cells: Prior to cell proliferation assays, RNA was isolated from each Ba/F3 cell line, and kinase domain mutations were confirmed by RT-PCR followed by DNA sequence analysis using Mutation Surveyor software (SoftGenetics, State College, Pa.).

Turning to `Cc1ccc(C(=O)Nc2ccc(CN3CCN(C)CC3)c(C(F)(F)F)c2)cc1C#Cc1cnc2cccnn12` [Compound 1, 3-(imidazo[1,2-b]pyridazin-3-ylethynyl)-4-methyl-N-(4-((4-methylpiperazin-1-yl)-methyl)-3-(trifluoromethyl)phenyl)benzamide], the IC50 is 5.5 nM in assay [1], 2 nM with MV4-11 cells (FLT3-ITD), 1710 nM in the assay on parental Ba/F3 cells and 4 nM in assay [5]. Moreover, the GI50 (as a rule, the concentration at which growth is held to half of that of the control) in assay [2] amounted to 7 nM. Also, the “effect on CrkL phosphorylation” value in assay [3] is “only compound 1 demonstrated activity against the T315I mutant; also recorded: marked reduction in % pCrkL”. For the same compound, the results for the “TGI (%)” value in assay [4] (Compound 1 10 mg/kg alone) and in assay [4] (Compound 1 30 mg/kg alone) were 26% and 81%, respectively.
